Assay results from ChEMBL document CHEMBL5727767, “1,2-substituted cyclopentanes as orexin receptor antagonists” (2020).

What was measured:
[1] = target: T1, Orexin/Hypocretin receptor type 1 (Homo sapiens, UniProt O43613); assay type: cell-based
T1 sequence (O43613 whole entry): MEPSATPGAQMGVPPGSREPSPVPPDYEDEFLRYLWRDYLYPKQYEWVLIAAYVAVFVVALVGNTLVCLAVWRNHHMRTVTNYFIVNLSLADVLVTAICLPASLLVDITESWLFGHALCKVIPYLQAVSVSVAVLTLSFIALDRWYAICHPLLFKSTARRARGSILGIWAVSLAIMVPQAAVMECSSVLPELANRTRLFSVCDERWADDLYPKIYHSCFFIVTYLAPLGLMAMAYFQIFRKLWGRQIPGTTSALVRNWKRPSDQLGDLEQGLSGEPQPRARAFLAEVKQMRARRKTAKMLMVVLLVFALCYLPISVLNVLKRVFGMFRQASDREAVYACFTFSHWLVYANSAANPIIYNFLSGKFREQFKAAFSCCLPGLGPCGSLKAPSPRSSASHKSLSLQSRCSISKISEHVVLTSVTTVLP

[2] = target: T2, Orexin receptor type 2 (Homo sapiens, UniProt O43614); assay type: cell-based
T2 sequence (O43614 whole entry): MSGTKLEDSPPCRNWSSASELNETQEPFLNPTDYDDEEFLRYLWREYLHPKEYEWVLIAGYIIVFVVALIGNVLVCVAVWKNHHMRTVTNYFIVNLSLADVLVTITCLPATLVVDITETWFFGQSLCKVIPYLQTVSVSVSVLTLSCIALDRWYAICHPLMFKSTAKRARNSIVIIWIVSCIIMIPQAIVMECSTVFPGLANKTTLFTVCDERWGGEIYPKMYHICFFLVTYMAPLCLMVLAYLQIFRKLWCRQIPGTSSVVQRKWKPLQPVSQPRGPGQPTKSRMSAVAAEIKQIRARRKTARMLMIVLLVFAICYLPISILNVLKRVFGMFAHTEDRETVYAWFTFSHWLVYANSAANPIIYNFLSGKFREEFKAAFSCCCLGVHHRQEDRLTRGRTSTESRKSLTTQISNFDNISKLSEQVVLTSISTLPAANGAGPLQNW

IC50 [1]: 270 nM
IC50 [2]: > 10000 nM
SMILES: Cc1ccc(-n2nccn2)c(C(=O)N[C@@H]2CCC[C@@H]2Nc2ccc(Cl)cn2)c1
